Where two headings read alike, the source gives them in different places. Marks after values point to notes of the source that are not given here.
Columns and labels:
NASH in vivo models [1] = assay: NASH in vivo models, summary and comparison of data from multiple studies (Table 15; first row Aardvark Therapeutics, PCT/US2022/014550); settings: Male C57BL/6 mice fed AMLN diet for 48 weeks; 30 mg/kg, PO, QD for 48 weeks
From the text: FIGS. 23 through 33B show data from this Example 6, which is further described above under the heading, Brief Description of the Figures. A summary and comparison of NASH in vivo data from multiple studies is shown below in Table 15. [table] […] This makes it difficult to do direct comparisons of the data. The study corresponding to the first row (called Aardvark Therapeutics) is provided in PCT Patent application PCT/US2022/014550, filed Jan. 31, 2022.

[2] = test system: C57Bl/6J mice fed with high-fat diet; settings: vildagliptin 30 mg/kg/day 7 weeks, alogliptin 0.03% (wt/wt) in diet for life span, cited from earlier work
[3] = cited from earlier work; for Effect on Body Weight (placebo-adjusted change from baseline) / Effect on HbA1c (placebo-adjusted change from baseline) / Effect on Body Weight (placebo-adjusted change from baseline), percent: QD 24-26 weeks; for TC level change from baseline / LDL level change from baseline: placebo +2%; for HDL level change from baseline: placebo +1%
ob/ob mice = settings: cited from earlier work
[4] = side effect incidence; cited from earlier work
[5] = in vivo; cited from earlier work
C57BL/6 mice fed on HFD = settings: end of study, cited from earlier work
NASH in vivo models [6] = settings: Male C57BL/6J mice fed AMLN diet for 32 weeks, 10 nmol/kg, SC for 12 weeks, cited from earlier work
[7] = cited from earlier work; for percentage of patients in whom NASH resolution was achieved with no worsening of fibrosis: placebo 17%
[8] = test system: AMLN-diet induced mice (fatty liver disease/NASH model); type: in vivo; settings: in words
From the text: This Example provides the results obtained from an in vivo mouse model of fatty liver disease treatment to investigate the therapeutic effect of DA on the treatment of NASH versus positive control semaglutide (a GLP-1 agonist marketed drug for lowering HbA1c). This study used a positive control semaglutide, a vehicle control, study drug DA and a combination of semaglutide and DA. Mouse strain (B6 mice) was used, and the animals were already adults (23 weeks old) when the study began because the animals were already fed an AMLN diet for 17 weeks prior to the study being initiated. The study dose began at 75 mg/kg BID.
The study included 3 groups of 10 mice each, (A) vehicle control with distilled water by gavage BID, (B) DA by gavage BID, and (C) semaglutide […] sc QD. Body weights and changes were measured 3× per week. Serum metabolic markers (blood glucose, blood insulin, HbA1c, HDL, LDL triglycerides and bile acids) were measured at beginning of dosing (baseline) and end of study. At the end of the study, histopathology of liver samples and serum levels of inflammatory biomarkers (IL-6, TNFα, CK-18 and TGF-β) were evaluated. Histopathology was performed blindly with a scoring scale according to NAFLD Activity Score and Fibrosis Score according to Table 13. Table 14 identifies the kits and equipment used to measure serum parameters.

[9] = sitagliptin 0.004% in diet 12 weeks
[10] = semaglutide 3 mg, sitagliptin 100 mg, saxagliptin 2.5 mg, vildagliptin 50 mg, alogliptin 12.5 mg, linagliptin 5 mg
[11] = semaglutide 3 mg, sitagliptin 100 mg, saxagliptin 2.5 mg, vildagliptin 50 mg
[12] = semaglutide 7 mg, sitagliptin 200 mg, saxagliptin 5 mg, vildagliptin 100 mg, alogliptin 25 mg
[13] = semaglutide 7 mg, sitagliptin 200 mg, saxagliptin 5 mg, vildagliptin 100 mg
[14] = vildagliptin 1.9 mg/kg BID 33 days
[15] = vildagliptin 6.3 mg/kg BID 33 days
[16] = exenatide 24 nmol/kg QD IP 4 weeks, dulaglutide 0.6 mg/kg once weekly IP 12 weeks, liraglutide 0.3 mg/kg QD SC 38 days
[17] = exenatide 24 nmol/kg QD IP 4 weeks, dulaglutide 0.6 mg/kg once weekly IP 12 weeks, liraglutide 0.3 mg/kg QD SC 38 days, semaglutide 25 nmol/kg every two days SC 3 weeks
[18] = exenatide 24 nmol/kg QD IP 4 weeks, semaglutide 25 nmol/kg every two days SC 3 weeks
[19] = semaglutide 25 nmol/kg every two days SC 3 weeks
[20] = semaglutide 14 mg, saxagliptin 10 mg

With CC(=O)[O-].CC[N+](CC)(CC(=O)Nc1c(C)cccc1C)Cc1ccccc1 [DA or ARD-101] the “serum level of ALT, change” value (NASH in vivo models [1]) was “ALT (−43%), AST”, the “serum level of AST, change” value (NASH in vivo models [1]) was “(−9.5%), and bile acid” and the “serum level of HbAlc, change” value (NASH in vivo models [1]) was −6.7%. For the same compound, the “serum level of bile acid, change” value (NASH in vivo models [1]) was “(−16.2%)”, the “serum level of fasting glucose, change” value (NASH in vivo models [1]) was −9% and the “serum levels of GLP-1 and GLP-2” value (NASH in vivo models [1]) was “Increased serum levels”. The “serum levels of inflammatory markers” value (NASH in vivo models [1]) was “Lowered serum levels” and the “steatosis and fibrosis on histopathology” value (NASH in vivo models [1]) was “Significantly improved”.
For N#C[C@@H]1CCCN1C(=O)CNC12CC3CC(CC(O)(C3)C1)C2 [Vildagliptin], the “Control-adjusted Percent Change in Body Weight Gain” value [2, 9] is listed as “+11%”, the “Control-adjusted Percent Change in Fasting Blood Glucose” value [2, 9] is listed as −15.1%* and the “Control-adjusted Percent Change in Insulin Level” value [2, 9] is listed as −33.2%. For the same compound, the “Control-adjusted Percent Change in Lipid Levels: TC” value [2] was −51.5% in TC*, the “Control-adjusted Percent Change in Lipid Levels: TG” value [2] was −23.6% in TG** and the “Effect on Body Weight (placebo-adjusted change from baseline)” value [3, 10] was 50 mg: +0.6 kg. For the same compound, the “Effect on HbA1c (placebo-adjusted change from baseline)” value [3, 10] was 50 mg: −0.7%, the “Effect on Body Weight (placebo-adjusted change from baseline), percent” value [3, 11] was “(+0.65%)” and the “Effect on Body Weight (placebo-adjusted change from baseline)” value [3, 12] was 100 mg: +1.2 kg. The “Effect on HbA1c (placebo-adjusted change from baseline)” value [3, 12] was 100 mg: −1.1%, the “Effect on Body Weight (placebo-adjusted change from baseline), percent” value [3, 13] was “(+1.3%)” and the “TG level change from baseline” value ([3]; vildagliptin 50 mg QD 24 weeks, placebo +19%) was “from baseline: +1%”. The “TG level change from baseline” value ([3]; vildagliptin 100 mg QD 24 weeks, placebo +19%) was “(50 mg) ^$ and +5%”, the “Other lipid parameters, change” value ([3]; vildagliptin, all treatment groups, no significant between-treatment differences) was “changed by <3%” and the “Control-adjusted Percent Change in Fasting Blood Glucose” value (ob/ob mice; [14]) was −29.4%. The “Control-adjusted Percent Change in TG Level” value (ob/ob mice; [14]) was −29.3%, the “Control-adjusted Percent Change in Fasting Blood Glucose” value (ob/ob mice; [15]) was −40.2% and the “Control-adjusted Percent Change in TG Level” value (ob/ob mice; [15]) was −19.9%.
For CC[C@H](C)[C@H](NC(=O)[C@H](Cc1ccccc1)NC(=O)[C@H](CC(=O)O)NC(=O)[C@H](CCCNC(=N)N)NC(=O)[C@H](C)NC(=O)[C@H](C)NC(=O)[C@H](CC(C)C)NC(=O)[C@H](CC(N)=O)NC(=O)[C@H](CC(=O)O)NC(=O)[C@H](CC(C)C)NC(=O)[C@@H](NC(=O)[C@@H](NC(=O)[C@H](CC(N)=O)NC(=O)[C@H](CCSC)NC(=O)[C@H](CCC(=O)O)NC(=O)[C@H](CC(=O)O)NC(=O)[C@H](CO)NC(=O)[C@H](Cc1ccccc1)NC(=O)[C@H](CO)NC(=O)CNC(=O)[C@H](CC(=O)O)NC(=O)CNC(=O)[C@@H](N)Cc1c[nH]cn1)[C@@H](C)O)[C@@H](C)CC)C(=O)N[C@@H](CC(N)=O)C(=O)N[C@@H](Cc1c[nH]c2ccccc12)C(=O)N[C@@H](CC(C)C)C(=O)N[C@H](C(=O)N[C@@H](CCC(N)=O)C(=O)N[C@H](C(=O)N[C@@H](CCCCN)C(=O)N[C@H](C(=O)N[C@H](C(=O)N[C@@H](CC(=O)O)C(=O)O)[C@@H](C)O)[C@@H](C)CC)[C@@H](C)O)[C@@H](C)CC [teduglutide], the injection site reaction [4] is given as 13%, the intestinal stoma complication [4] is given as 42% and the “upper respiratory tract infection” value [4] is given as 21%.
In the case of “Dulaglutide: fusion protein GLP-1 receptor agonist”, the “Incidence of Hypoglycemic Episodes for Combination with Insulin (vs. Placebo)” value [5] is given as 14.7%*, the “Incidence of Hypoglycemic Episodes for Combination with Metformin (vs. Placebo)” value [5] is given as 0.7% and the “Incidence of Hypoglycemic Episodes for Combination with a Sulfonylurea (vs. Placebo)” value [5] is given as 3.3%. The “Control-adjusted Percent Change in Insulin Level” value (C57BL/6 mice fed on HFD; dulaglutide 0.6 mg/kg once weekly IP 12 weeks, liraglutide 0.3 mg/kg QD SC 38 days) was −77%*, the “Control-adjusted Body Weight Gain” value (C57BL/6 mice fed on HFD; [16]) was -8.1 g and the “Control-adjusted Percent Change in Body Weight” value (C57BL/6 mice fed on HFD; [16]) was −15.9%*. The “Control-adjusted Percent Change in Fasting Blood Glucose” value (C57BL/6 mice fed on HFD; [17]) was −16.3%*.
For Semaglutide, the “liver TG and total cholesterol levels, plasma ALT level, and liver content of fibrosis markers” value (NASH in vivo models [6]) is given as “Significantly decreased”, the “liver weight and NAS overall score” value (NASH in vivo models [6]; significant) is given as “decreased liver weight” and the “Incidence of Hypoglycemic Episodes for Combination with Insulin (vs. Placebo)” value [5] is given as 29.8%*. The “Incidence of Hypoglycemic Episodes for Monotherapy at the Highest Dose (vs. Placebo)” value [5] was 3.8%, the “Control-adjusted Percent Change in Fasting Blood Glucose” value (C57BL/6 mice fed on HFD; [17]) was −12.8%*** and the “Control-adjusted Percent Change in Lipid Levels: TC” value (C57BL/6 mice fed on HFD; [18]) was “TC: −16.7%**”. The “Control-adjusted Percent Change in Lipid Levels: TG” value (C57BL/6 mice fed on HFD; [18]) was “TG: −13.8%**”, the “Absolute body weight percent change” value (C57BL/6 mice fed on HFD; [19]) was −13.4%^## and the “Control-adjusted Percent Change in Lipid Levels: LDL” value (C57BL/6 mice fed on HFD; [19]) was “LDL: −9.3%*”. The “TC level change from baseline” value ([3]; oral semaglutide 3 mg, 26-week trial product estimate from another clinical trial) was “from baseline: −3%”, the “HDL level change from baseline” value ([3]; oral semaglutide 3 mg, 26-week) was “from baseline: 0%” and the “LDL level change from baseline” value ([3]; oral semaglutide 3 mg, 26-week) was “from baseline: −4%”. The “TG level change from baseline” value ([3]; oral semaglutide 3 mg, 26-week, placebo −2%) was “from baseline: −5%”, the “HDL level change from baseline” value ([3]; oral semaglutide 7 mg, 26-week) was “(3 mg), −2%” and the “LDL level change from baseline” value ([3]; oral semaglutide 7 mg, 26-week) was “(3 mg) ^$, −6%”. For the same compound, the “TC level change from baseline” value ([3]; oral semaglutide 7 mg, 26-week) was “(3 mg) ^$$ −5%”, the “TG level change from baseline” value ([3]; oral semaglutide 7 mg, 26-week, placebo −2%) was “(3 mg), −9%” and the “Effect on Body Weight (placebo-adjusted change from baseline)” value [3, 10] was 3 mg: −0.2 kg. The “Effect on HbA1c (placebo-adjusted change from baseline)” value [3, 10] was 3 mg: −0.7%, the “Effect on Body Weight (placebo-adjusted change from baseline), percent” value [3, 11] was “(−0.23%)” and the “Effect on Body Weight (placebo-adjusted change from baseline)” value [3, 12] was 7 mg: −1.0 kg. The “Effect on HbA1c (placebo-adjusted change from baseline)” value [3, 12] was 7 mg: −1.2%, the “Effect on Body Weight (placebo-adjusted change from baseline), percent” value [3, 13] was “(−1.1%)” and the “Effect on Body Weight (placebo-adjusted change from baseline)” value [3, 20] was 14 mg: −2.6 kg. The “Effect on Body Weight (placebo-adjusted change from baseline), percent” value [3, 20] was “(−3.0%)”, the “Effect on HbA1c (placebo-adjusted change from baseline)” value [3, 20] was 14 mg: −1.4% and the “percentage of patients in whom NASH resolution was achieved with no worsening of fibrosis” value (“percentage … with no worsening of fibrosis” for short) ([7]; 0.1-mg group) was 40%. For the same compound, the “percentage … with no worsening of fibrosis” value ([7]; 0.2-mg group) was 36%, the “mean percent weight loss” value ([7]; 0.4-mg group, placebo 1%) was 13% and the “percentage … with no worsening of fibrosis” value ([7]; 0.4-mg group) was 59%. The incidence of constipation ([7]; human, in vivo) was 22%, the incidence of nausea ([7]; human, in vivo) was 42% and the incidence of vomiting ([7]; human, in vivo) was 15%. The “patients with malignant neoplasms” value ([7]; human, in vivo) was 1%, the “patients with neoplasms (benign, malignant, or unspecified)” value ([7]; human, in vivo) was 15% and the “NAFLD Activity Score based on blinded histopathologic review” value ([8]; 12 weeks, DA 75 then 50 mg/kg BID by gavage, semaglutide 10 mmol/kg sc QD) was “significantly improved NAFLD Activity Score”. For the same compound, the “body weight and body weight change” value ([8]; 12 weeks, DA 75 then 50 mg/kg BID, semaglutide 10 mmol/kg sc QD) was “remarkable effect on body weight”, the HDLs ([8]; end of study) was “significantly decreased” and the LDLs ([8]; end of study) was “significantly decreased”. For the same compound, the TGs ([8]; end of study) was “significantly decreased”.
